According to PubChem BioAssay AID463204 (Broad Institute, 2010):
Calls of active or inactive are those of the source.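 Rule for the calls: active = AC50 no more than ten times the top concentration tested, that is within one log above it; inconclusive = flat curve fit with activity between 30% and 70%, or invalid poor fit; inactive = AC50 beyond ten times the top tested dose.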

What follows are molecules tested on S. cerevisiae Mot1-301 ts growth rescue, BacTiter-Glo ATP luminescence (assay: restored Mot1-301 yeast growth at 38.5C – whole organism, S. cerevisiae, Mot1-301 ts mutant, luminescence, dose retest, SUMOylation pathway inhibitor project, confirmation (AID 463204);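 note: growth at restrictive 38.5 degrees C of Mot1-301 OY566 strain; actives raise luminescence by restoring growth of the ts mutant at high temperature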).
With `COc1cc([C@@H]2CC=C(C(=O)O)[C@H](c3ccccc3F)N2S(=O)(=O)c2ccc(C)cc2)cc(OC)c1OC` the AC50 was > 42 µM (inactive). `Nc1ccc(NC(=O)c2ccco2)c(Cl)c1` was tested, and the AC50 was > 42 µM (inactive). `O=c1[nH]cnc2ccc([N+](=O)[O-])cc12` was tested, and the AC50 was > 42 µM (inactive). In the case of `O=C1c2ccccc2NC(c2ccccc2O)N1O` (configuration not stated), the AC50 was > 42 µM (inactive). For `COc1ccc(NC(=O)C(c2ccccc2)N2CCN(c3ccccn3)CC2)cc1Cl` (configuration not stated), the AC50 was > 42 µM (inactive). With `Cc1ccnc(NC(c2cccnc2)c2ccc3cccnc3c2O)c1` (configuration not stated) the AC50 was > 42 µM (inactive). In the case of `O=C1CC(c2ccccc2)c2ccc(O)cc2O1` (configuration not stated), the AC50 was > 42 µM (inactive). With `CC(C)c1nc2n[nH]c(N)c2c2c1CCC2` the AC50 was > 42 µM (inactive). In the case of `O=C(CCCCCn1c(=O)[nH]c2ccsc2c1=O)NCc1ccc(F)cc1`, the AC50 was > 42 µM (inactive). `CC(=O)N1CCN(CC(O)COc2ccc(OCc3ccccc3)cc2)CC1` (configuration not stated) was tested, and the AC50 was > 42 µM (inactive). In the case of `Cc1ccc(N2CN(CCc3ccccc3)CNC2=S)cc1`, the AC50 was > 42 µM (inactive). `O=C(CSc1ncnc2nc[nH]c12)Nc1ccccc1C(F)(F)F` was tested, and the AC50 was > 42 µM (inactive). In the case of `CN(C)CCNC(=O)c1scc2c1CCCC2`, the AC50 was 29.2 µM. In the case of `O=C(/C=C/c1cccc([N+](=O)[O-])c1)NCCSCc1ccc(Cl)cc1Cl`, the AC50 was > 42 µM (inactive). `Cc1ccc(S(=O)(=O)NNC(=O)c2cc3cc4ccccc4nc3s2)cc1` was tested, and the AC50 was > 42 µM (inactive). `CCC(C)NCCOc1ccccc1C` (configuration not stated) was tested, and the AC50 was > 42 µM (inactive). `CC1=C(C(N)=O)C(c2ccccn2)n2nc(SCc3ccccc3Cl)nc2N1` (configuration not stated) was tested, and the AC50 was > 42 µM (inactive). With `O=C1CCC(=O)N1CCOP1(=O)COc2ccccc2OC1` the AC50 was > 42 µM (inactive). With `O=C1c2ccccc2C(=O)N1CCSc1ccccc1` the AC50 was > 42 µM (inactive). In the case of `CCC(C)(C)NC(=O)C(c1ccc(C)cc1)N(CC1CCCO1)C(=O)CNC(=O)c1cccs1` (configuration not stated), the AC50 was > 42 µM (inactive). For `CN(CCOc1ccc(Cl)cc1)CC(=O)Nc1ccc(OC(F)F)cc1`, the AC50 was > 42 µM (inactive). `N#Cc1c(NC(=O)c2ccc([N+](=O)[O-])o2)sc2c1CCC2` showed an AC50 of 40.1 µM. For `O=C(CSc1cccc[n+]1[O-])N1CCc2ccccc21`, the AC50 was > 42 µM (inactive). For `COc1ccc(-c2[nH]ncc2CNCCn2cccn2)c(F)c1`, the AC50 was > 42 µM (inactive). `CCOc1ccc(C(=O)Nc2ccc(CN3CCOCC3)cc2)cc1Br` was tested, and the AC50 was > 21 µM (inactive). For `O=C(/C=C/NNC(=O)c1ccc(Br)cc1)c1ccccc1`, the AC50 was > 42 µM (inactive). For `O=C(CSc1ncn[nH]1)Nc1cccc(S(=O)(=O)N2CCCCCC2)c1`, the AC50 was > 42 µM (inactive). `CC(C)C(=O)NCCSc1c[nH]c2ccccc12` was tested, and the AC50 was > 42 µM (inactive). In the case of `CCCCc1ccc(S(=O)(=O)NNC(=S)NCc2ccco2)cc1`, the AC50 was > 42 µM (inactive). For `Cc1cccc(OCc2nnc(SCC(=O)O)n2-c2ccccc2)c1`, the AC50 was > 42 µM (inactive). `CCOC(C(=O)OCCCN(CC)CC)(c1ccccc1)c1ccccc1` was tested, and the AC50 was > 42 µM (inactive). For `Cc1ccc(CC2CC(=O)N(c3ccc4c(c3)OCCO4)C2=O)cc1` (configuration not stated), the AC50 was > 42 µM (inactive). `CC1(C)CCC(=O)N2CC[C@H]3C[C@H](OC(=O)Nc4ccc(Br)cc4)C[C@@H]1[C@H]32` was tested, and the AC50 was > 42 µM (inactive). In the case of `CC(C)CCCN1CCN=C1Nc1ccccc1`, the AC50 was > 42 µM (inactive). In the case of `COc1cccc(-n2c(SCC(=O)NC3CCCCC3)nc3n[nH]c(C)c3c2=N)c1`, the AC50 was > 42 µM (inactive). For `O=C(N/N=C/C(Br)=C/c1ccccc1)c1n[nH]c2c1CCC2`, the AC50 was 6.68 µM. With `COCCNCc1ccccc1` the AC50 was > 42 µM (inactive). In the case of `Cc1cc(C)cc(-n2ncc3c2CCCC3NC(=O)c2cc(C)[nH]n2)c1` (configuration not stated), the AC50 was > 42 µM (inactive). In the case of `COc1ccc2nc(SCC(=O)N(C)CC(=O)Nc3ccc(F)cc3)[nH]c2c1`, the AC50 was > 42 µM (inactive). With `CCCN(CCC)C(=O)CSc1ncccc1C(=O)O` the AC50 was > 42 µM (inactive). `Cc1ccc(O)c(C)c1` was tested, and the AC50 was > 42 µM (inactive). In the case of `Cc1sc2nc(N)sc2c1C`, the AC50 was > 42 µM (inactive). With `CCOC(=O)CCN(c1ccccc1)S(=O)(=O)c1ccc(-c2ccc(=O)[nH]n2)s1` the AC50 was > 42 µM (inactive). With `O=C(c1cc(Cl)c(=O)n(Cc2ccc(Cl)cc2)c1)N1CCOCC1` the AC50 was > 42 µM (inactive). For `O=C1CC(c2cccc(Br)c2)C2=C(COC2=O)N1` (configuration not stated), the AC50 was > 42 µM (inactive). `COc1ccc(S(=O)(=O)N2CCCC2CNC(=O)C(=O)NCc2ccccn2)cc1` (configuration not stated) was tested, and the AC50 was > 42 µM (inactive). `COCC(=O)NNC(=O)c1ccccc1OC` was tested, and the AC50 was > 42 µM (inactive). With `Cc1ccc2c(c1)C(O)(CC(=O)c1cccnc1)C(=O)N2` (configuration not stated) the AC50 was > 42 µM (inactive). For `CCOC(=O)c1ccc(NC(=O)CC2Sc3ncnn3C2=O)cc1` (configuration not stated), the AC50 was 6.96 µM. With `Cc1ccc(C)c(NC(=S)NC(=O)c2cncc(Br)c2)c1` the AC50 was > 42 µM (inactive). For `CC(C)CC(=O)Nc1ccc(C(=O)CN2C(=O)NC3(CCOc4ccccc43)C2=O)cc1` (configuration not stated), the AC50 was > 42 µM (inactive). For `COC(C(=O)Nc1ccnn1C1CCN(Cc2cnn(C)c2)CC1)c1ccccc1` (configuration not stated), the AC50 was > 42 µM (inactive). For `COc1ccc2nc(NC(=O)c3cc(S(=O)(=O)N4CCOCC4)ccc3C)sc2c1`, the AC50 was > 42 µM (inactive). With `O=C(CCSc1nnnn1-c1ccccc1)N1CCOCC1` the AC50 was > 42 µM (inactive). In the case of `O=C(c1ccc(F)cc1)C(CN1CCOCC1)c1ccccc1` (configuration not stated), the AC50 was 1.3 µM. In the case of `COc1ccc2c(c1)OC[C@H]1[C@H]2N2C(=O)c3ccccc3NC(=O)[C@@]2(C)[C@H]1c1ccccc1`, the AC50 was > 42 µM (inactive). For `COc1ccccc1N1CCN(C(=O)C(=O)N/N=C/c2ccccc2F)CC1`, the AC50 was > 42 µM (inactive). In the case of `COc1cc(C)c(Cl)c(C)c1S(=O)(=O)NCc1ccc2c(c1)OCO2`, the AC50 was > 42 µM (inactive). In the case of `CC(=O)c1ccc(N=C2SCCCN2C(=O)C2CCCC2)cc1`, the AC50 was > 42 µM (inactive). In the case of `CCCCC1=CC2=CC(=O)C(C)(OC(=O)CC)C(=O)C2=CN1CCCOC(C)C` (configuration not stated), the AC50 was > 42 µM (inactive). With `C/C=C(/C)C(=O)OC1c2c(ccc3ccc(=O)oc23)OC(C)(C)C1OC(=O)/C(C)=C\C` (configuration not stated) the AC50 was > 42 µM (inactive). For `Cc1cccc(Cn2c(C(=O)OC(C)C)cc3c2ccn3C)c1`, the AC50 was > 42 µM (inactive). `CCCCCCCN1C(Nc2ccccc2)=NC[C@@H]1CC(C)C` was tested, and the AC50 was > 21 µM (inactive). In the case of `CCOC(=O)c1cc(C#N)c(Oc2ccccc2OC)nc1-c1ccccc1`, the AC50 was > 42 µM (inactive). In the case of `CCOc1ccc(NC(=O)Nc2ccc3nsnc3c2)cc1`, the AC50 was > 42 µM (inactive). With `Cc1c(NP(=O)(c2ccc(Br)cc2)c2ccc(Br)cc2)c(=O)n(-c2ccccc2)n1C` the AC50 was > 42 µM (inactive). For `CN1CCN(CC(=O)N2c3ccccc3C(=O)Nc3cccnc32)CC1`, the AC50 was > 42 µM (inactive). `N#Cc1c2ccc([N+](=O)[O-])cc2[n+]([O-])n1-c1ccccc1` showed an AC50 of 2.9 µM. With `NNC(=O)c1oc2nc(-c3ccccc3)cc(-c3ccccc3)c2c1N` the AC50 was > 42 µM (inactive). With `COc1cc2c(cc1OC)C(c1ccccc1[N+](=O)[O-])N(C(C)=O)CC2` (configuration not stated) the AC50 was > 42 µM (inactive). In the case of `C=CCNC(=O)NC(=O)COC(=O)CCCSc1nc2ccccc2[nH]1`, the AC50 was > 42 µM (inactive). For `CC(C)CC(c1nnnn1C1CCCCC1)N1CCN(C(=O)c2ccco2)CC1` (configuration not stated), the AC50 was > 42 µM (inactive). For `c1ccc2c(c1)[nH]c1c(N3CCN(C4CCCCC4)CC3)ncnc12`, the AC50 was > 42 µM (inactive). For `Cc1nn(C)cc1S(=O)(=O)Nc1ncccn1`, the AC50 was > 42 µM (inactive). For `CN/C(=C/[N+](=O)[O-])NCCSCc1ccc(CN(C)C)o1`, the AC50 was > 42 µM (inactive). With `Cc1ccc(F)cc1NS(=O)(=O)c1ccc(Cl)s1` the AC50 was 22.2 µM. `CN(C)CCNC(=O)c1onc(CSc2ccc(F)c(F)c2)c1C(=O)NCCN(C)C` was tested, and the AC50 was > 42 µM (inactive). With `O=S(=O)(c1ccc(S(=O)(=O)N2CCCC2)cc1)N1CCCCC1` the AC50 was > 42 µM (inactive). `CCOC(=O)C1CCCN(C(=O)/C=C/c2ccc(Cl)cc2)C1` (configuration not stated) was tested, and the AC50 was > 42 µM (inactive). For `O=C(c1ccc2c(=O)n(Cc3ccccc3Cl)c(=S)[nH]c2c1)N1CCOCC1`, the AC50 was > 42 µM (inactive). For `O=C(Cc1cccs1)N1CCCC(c2nc3c(nnn3Cc3ccc(F)cc3)c(=O)[nH]2)C1` (configuration not stated), the AC50 was > 42 µM (inactive). With `Cn1c(CN2CCOCC2)nnc1SCC(N)=O` the AC50 was > 42 µM (inactive). For `COc1cc(NC(=S)N2CCN(C(=O)C3CCCO3)CC2)c(OC)cc1Cl` (configuration not stated), the AC50 was > 42 µM (inactive). `COc1cc2c(cc1NC(=O)c1cccnc1)oc1ccccc12` was tested, and the AC50 was > 42 µM (inactive). In the case of `Cc1ccc(N2C(=O)c3cccc4c(N5CCN(C)CC5)ccc(c34)C2=O)c2cccnc12`, the AC50 was > 42 µM (inactive). For `N=c1sccn1CC(=O)Nc1cccc(S(N)(=O)=O)c1`, the AC50 was > 42 µM (inactive). `CN(C(=O)c1ccncc1)c1nnc(-c2cnccn2)s1` was tested, and the AC50 was > 42 µM (inactive). With `Cc1ccc(-n2nc3c(=O)n(CCCC(=O)NCc4cccc(F)c4)nc(C)c3c2C)cc1` the AC50 was > 42 µM (inactive). For `CCCN1C(=O)c2ccc(C(=O)Nc3nccs3)cc2C1=O`, the AC50 was > 42 µM (inactive). In the case of `Cc1cnc(=O)[nH]c1SCC(=O)c1ccc(F)cc1`, the AC50 was > 42 µM (inactive). For `COCCN(C(=O)C1CC1)c1nnc(-c2ccc(C)cc2)s1`, the AC50 was > 42 µM (inactive). For `Cc1ccc(CC(=O)O/N=C(\N)c2cccc([N+](=O)[O-])c2)cc1`, the AC50 was > 42 µM (inactive). For `COc1ccc(CCNC(=O)C/C(C)=N/NC(=O)COc2ccc(C)cc2Br)cc1OC`, the AC50 was > 42 µM (inactive). For `CS(=O)(=O)N(CC(=O)N1CCCCCC1)Cc1ccc(Cl)cc1`, the AC50 was > 42 µM (inactive). In the case of `CCN(C(=O)Nc1ccccc1OC)c1c(N)n(Cc2ccccc2)c(=O)[nH]c1=O`, the AC50 was > 42 µM (inactive). In the case of `COc1ccc(C(C)=O)cc1CN(c1ccccc1OC)S(=O)(=O)c1cccs1`, the AC50 was > 42 µM (inactive). Work on `CC(=O)C(C(c1ccccc1)c1c[nH]c2ccccc12)[N+](=O)[O-]` (configuration not stated) yielded an AC50 of 33 µM. In the case of `N#C/C(=C\c1ccc(O)c(O)c1)C(=O)Nc1ccccc1`, the AC50 was > 42 µM (inactive). In the case of `Cc1nn(CCOc2ccccc2)c(=O)n1-c1ccccc1F`, the AC50 was > 42 µM (inactive). `CSc1nncc(/C(C)=N\Nc2cccc(C)c2)n1` was tested, and the AC50 was > 42 µM (inactive). With `CCOC(=O)C(NC(=O)c1ccccc1)(N1CCOCC1)C(F)(F)F` (configuration not stated) the AC50 was > 42 µM (inactive). In the case of `O=C(O)c1ccc(COc2c(F)c(F)cc(F)c2F)cc1`, the AC50 was > 42 µM (inactive).
